# “Also recorded” adds a separate entry of the source.
# Test system: Japanese patients with R/R iNHL
# Experiment: Phase 1 dose-escalation study: safety and tolerability (TEAEs, DLTs)
# Type: in vivo
# From the text: Japanese patients aged ≥ 20 years with R/R iNHL histologically confirmed as FL, nodal MZL, extra-nodal MZL of mucosa-associated lymphoid tissue, small lymphocytic lymphoma, lymphoplasmacytic lymphoma, Waldenström’s macroglobulinemia, or equivalent, according to World Health Organization classification, were eligible for this study. Other key eligibility criteria included being PI3K inhibitor therapy-naïve and an Eastern Cooperative Oncology Group performance status of 0 or 1. Further details of inclusion and exclusion criteria are provided in Supplementary Table 1.
# This was a multicenter, open-label, dose-escalation, phase 1 study in Japan. All patients received oral zandelisib once daily at the same time each day, at least 1 h before or 2 h after a meal (CS: continuous schedule). Each treatment cycle was 28 days. Definitions of the DLTs described in this study can be found in Supplementary Table 2. The observation period for DLTs was from day 1 of Cycle 1 to day 1 of Cycle 2. Zandelisib was administered until disease progression or unacceptable toxicity. In the event of an AE, patients could be switched to IDT. In the case of disease progression while receiving IDT, patients could be switched back to CS per the investigator’s discretion.
# A starting dose of 45 mg was set for investigating patient safety. This study adopted a standard 3 + 3 design. […] If DLTs occurred in 2 or more patients, the study was planned to be suspended pending a safety evaluation. If a DLT occurred in 1 patient, 3 further patients were added to cohort 1. If DLTs occurred in 0/3 or 1/6 patients in cohort 1, dosing in cohort 2 commenced (n = 6; 60 mg/day). If the incidence of DLTs in cohort 2 was ≤ 1/6, the maximum tolerated dose was not determined, and the dose in cohort 2 was to be selected as the recommended Japanese phase 2 dose.
# The primary endpoint was the safety [number of patients with treatment-emergent adverse events (TEAEs), based on Common Terminology Criteria for Adverse Events version 5.0] and tolerability (including laboratory values, vital signs, and electrocardiogram performance) of zandelisib in Japanese patients. Hepatobiliary disorder, aspartate/alanine (AST/ALT) increased, diarrhea/colitis, organizing pneumonia, stomatitis, or rash were defined as irAEs in this manuscript. Secondary endpoints included PK (plasma concentrations and PK parameters) and the efficacy of zandelisib. […] The PK parameters for Cycle 1 day 1 and Cycle 2 day 1 were calculated for each patient by non-compartmental analysis. PK parameters included maximum plasma drug concentration (Cmax), area under the plasma concentration–time curve (AUC) from time zero to the last measurable point (AUC0–t), the AUC from time zero to infinity (AUC0-inf), and terminal half-life (t1/2).
compound,measurement,setting,value
CN1CCC(c2ccccc2CC(C)(C)Nc2nc(N3CCOCC3)nc(-n3c(C(F)F)nc4ccccc43)n2)CC1 [zandelisib],"TEAE Infections and infestations (SOC), All grades","60 mg, n = 6",4 (66.7) n (%)
same,"TEAE Infections and infestations (SOC), Grade ≥ 3","60 mg, n = 6",0 n (%)
same,"TEAE Infusion site extravasation, All grades","60 mg, n = 6",0 n (%)
same,"TEAE Infusion site extravasation, Grade ≥ 3","60 mg, n = 6",0 n (%)
same,"TEAE Insomnia, All grades","60 mg, n = 6",0 n (%)
same,"TEAE Insomnia, Grade ≥ 3","60 mg, n = 6",0 n (%)
same,"TEAE Investigations (SOC), All grades","60 mg, n = 6",6 (100.0) n (%)
same,"TEAE Investigations (SOC), Grade ≥ 3","60 mg, n = 6",4 (66.7) n (%)
same,"TEAE Joint effusion, All grades","60 mg, n = 6",0 n (%)
same,"TEAE Joint effusion, Grade ≥ 3","60 mg, n = 6",0 n (%)
same,"TEAE Lymphocyte count decreased, All grades","60 mg, n = 6",1 (16.7) n (%)
same,"TEAE Lymphocyte count decreased, Grade ≥ 3","60 mg, n = 6",0 n (%)
same,"TEAE Metabolism and nutrition disorders (SOC), All grades","60 mg, n = 6",0 n (%)
same,"TEAE Metabolism and nutrition disorders (SOC), Grade ≥ 3","60 mg, n = 6",0 n (%)
same,"TEAE Muscle spasms, All grades","60 mg, n = 6",0 n (%)
same,"TEAE Muscle spasms, Grade ≥ 3","60 mg, n = 6",0 n (%)
same,"TEAE Musculoskeletal and connective tissue disorders (SOC), All grades","60 mg, n = 6",2 (33.3) n (%)
same,"TEAE Musculoskeletal and connective tissue disorders (SOC), Grade ≥ 3","60 mg, n = 6",0 n (%)
same,"TEAE Nasopharyngitis, All grades","60 mg, n = 6",3 (50.0) n (%)
same,"TEAE Nasopharyngitis, Grade ≥ 3","60 mg, n = 6",0 n (%)
same,"TEAE Nausea, All grades","60 mg, n = 6",2 (33.3) n (%)
same,"TEAE Nausea, Grade ≥ 3","60 mg, n = 6",0 n (%)
same,"TEAE Nervous system disorders (SOC), All grades","60 mg, n = 6",0 n (%)
same,"TEAE Nervous system disorders (SOC), Grade ≥ 3","60 mg, n = 6",0 n (%)
same,"TEAE Neutrophil count decreased, All grades","60 mg, n = 6",6 (100.0) n (%)
same,"TEAE Neutrophil count decreased, Grade ≥ 3","60 mg, n = 6",4 (66.7) n (%)
same,"TEAE Oral herpes, All grades","60 mg, n = 6",0 n (%)
same,"TEAE Oral herpes, Grade ≥ 3","60 mg, n = 6",0 n (%)
same,"TEAE Organizing pneumonia, All grades","60 mg, n = 6",0 n (%)
same,"TEAE Organizing pneumonia, Grade ≥ 3","60 mg, n = 6",0 n (%)
same,"TEAE Oropharyngeal pain, All grades","60 mg, n = 6",2 (33.3) n (%)
same,"TEAE Oropharyngeal pain, Grade ≥ 3","60 mg, n = 6",0 n (%)
same,"TEAE Pancreatitis, All grades","60 mg, n = 6",0 n (%)
same,"TEAE Pancreatitis, Grade ≥ 3","60 mg, n = 6",0 n (%)
same,"TEAE Pharyngeal paresthesia, All grades","60 mg, n = 6",1 (16.7) n (%)
same,"TEAE Pharyngeal paresthesia, Grade ≥ 3","60 mg, n = 6",0 n (%)
same,"TEAE Pruritus, All grades","60 mg, n = 6",1 (16.7) n (%)
same,"TEAE Pruritus, Grade ≥ 3","60 mg, n = 6",0 n (%)
same,"TEAE Psychiatric disorders (SOC), All grades","60 mg, n = 6",0 n (%)
same,"TEAE Psychiatric disorders (SOC), Grade ≥ 3","60 mg, n = 6",0 n (%)
same,"TEAE Rash maculopapular, All grades","60 mg, n = 6",4 (66.7) n (%)
same,"TEAE Rash maculopapular, Grade ≥ 3","60 mg, n = 6",1 (16.7) n (%)
same,"TEAE Rash, All grades","60 mg, n = 6",3 (50.0) n (%)
same,"TEAE Rash, Grade ≥ 3","60 mg, n = 6",0 n (%)
same,"TEAE Renal and urinary disorders (SOC), All grades","60 mg, n = 6",0 n (%)
same,"TEAE Renal and urinary disorders (SOC), Grade ≥ 3","60 mg, n = 6",0 n (%)
same,"TEAE Renal impairment, All grades","60 mg, n = 6",0 n (%)
same,"TEAE Renal impairment, Grade ≥ 3","60 mg, n = 6",0 n (%)
same,"TEAE Respiratory, thoracic, and mediastinal disorders (SOC), All grades","60 mg, n = 6",3 (50.0) n (%)
same,"TEAE Respiratory, thoracic, and mediastinal disorders (SOC), Grade ≥ 3","60 mg, n = 6",0 n (%)
same,"TEAE Skin and subcutaneous tissue disorders (SOC), All grades","60 mg, n = 6",6 (100.0) n (%)
same,"TEAE Skin and subcutaneous tissue disorders (SOC), Grade ≥ 3","60 mg, n = 6",1 (16.7) n (%)
same,"TEAE Stomatitis, All grades","60 mg, n = 6",1 (16.7) n (%)
same,"TEAE Stomatitis, Grade ≥ 3","60 mg, n = 6",0 n (%)
same,"TEAE Subcutaneous abscess, All grades","60 mg, n = 6",1 (16.7) n (%)
same,"TEAE Subcutaneous abscess, Grade ≥ 3","60 mg, n = 6",0 n (%)
same,"TEAE Tinnitus, All grades","60 mg, n = 6",0 n (%)
same,"TEAE Tinnitus, Grade ≥ 3","60 mg, n = 6",0 n (%)
same,"TEAE Urticaria, All grades","60 mg, n = 6",0 n (%)
same,"TEAE Urticaria, Grade ≥ 3","60 mg, n = 6",0 n (%)
same,"TEAE Vomiting, All grades","60 mg, n = 6",2 (33.3) n (%)
same,"TEAE Vomiting, Grade ≥ 3","60 mg, n = 6",0 n (%)
same,"TEAE WBC count decreased, All grades","60 mg, n = 6",2 (33.3) n (%)
same,"TEAE WBC count decreased, Grade ≥ 3","60 mg, n = 6",0 n (%)
same,maximum tolerated dose (MTD),45 and 60 mg/day,not reached
same,dose-limiting toxicities (DLTs),"45 and 60 mg/day, N = 9",No dose-limiting toxicities were observed; also recorded: No DLTs were reported; also recorded: no DLTs or fatal events were observed
same,recommended phase 2 dose (RP2D),Japanese patients,60 mg/day
same,Grade 3 irAEs,N = 9,7 patients
same,Grade ≤ 3 irAEs,N = 9,All patients experienced Grade ≤ 3 irAEs
same,Grade ≥ 3 diarrhea,N = 9,33.3%
same,Grade ≥ 3 neutrophil count decreased,N = 9,55.6%
same,discontinued due to SAEs,N = 9,3 patients
same,dosing interrupted due to irAEs,N = 9,7 patients
same,dosing interrupted due to neutrophil count decreased,N = 9,1 patients
same,incidence of TEAEs ≥ Grade 3,N = 9,77.8%
same,number of serious AEs (SAEs),N = 9,6
same,zandelisib discontinuation due to immune-related toxicities,N = 9,4 patients
same,patients with serious AEs (SAEs),"N = 9, all Grade 3, treatment related",44.4%
same,incidence of TEAEs in all patients,"N = 9, all grades",100%
same,"TEAE ALT increased, All grades","Total, N = 9",3 (33.3) n (%)
same,"TEAE ALT increased, Grade ≥ 3","Total, N = 9",0 n (%)
same,"TEAE AST increased, All grades","Total, N = 9",5 (55.6) n (%)
same,"TEAE AST increased, Grade ≥ 3","Total, N = 9",0 n (%)
same,"TEAE Abdominal discomfort, All grades","Total, N = 9",1 (11.1) n (%)
same,"TEAE Abdominal discomfort, Grade ≥ 3","Total, N = 9",0 n (%)
same,"TEAE Abdominal pain upper, All grades","Total, N = 9",1 (11.1) n (%)
same,"TEAE Abdominal pain upper, Grade ≥ 3","Total, N = 9",0 n (%)
same,"TEAE Amylase increased, All grades","Total, N = 9",1 (11.1) n (%)
same,"TEAE Amylase increased, Grade ≥ 3","Total, N = 9",0 n (%)
same,"TEAE Anemia, All grades","Total, N = 9",1 (11.1) n (%)
same,"TEAE Anemia, Grade ≥ 3","Total, N = 9",0 n (%)
same,"TEAE Arthralgia, All grades","Total, N = 9",2 (22.2) n (%)
same,"TEAE Arthralgia, Grade ≥ 3","Total, N = 9",0 n (%)
same,"TEAE Back pain, All grades","Total, N = 9",1 (11.1) n (%)
same,"TEAE Back pain, Grade ≥ 3","Total, N = 9",0 n (%)
same,"TEAE Blepharitis, All grades","Total, N = 9",1 (11.1) n (%)
same,"TEAE Blepharitis, Grade ≥ 3","Total, N = 9",0 n (%)
same,"TEAE Blood and lymphatic system disorders (SOC), All grades","Total, N = 9",1 (11.1) n (%)
same,"TEAE Blood and lymphatic system disorders (SOC), Grade ≥ 3","Total, N = 9",0 n (%)
same,"TEAE Blood creatinine increased, All grades","Total, N = 9",1 (11.1) n (%)
same,"TEAE Blood creatinine increased, Grade ≥ 3","Total, N = 9",0 n (%)
same,"TEAE Bradycardia, All grades","Total, N = 9",1 (11.1) n (%)
same,"TEAE Bradycardia, Grade ≥ 3","Total, N = 9",0 n (%)
same,"TEAE CMV test positive, All grades","Total, N = 9",3 (33.3) n (%)
same,"TEAE CMV test positive, Grade ≥ 3","Total, N = 9",0 n (%)
same,"TEAE Cardiac disorders (SOC), All grades","Total, N = 9",1 (11.1) n (%)
same,"TEAE Cardiac disorders (SOC), Grade ≥ 3","Total, N = 9",0 n (%)
same,"TEAE Conjunctivitis, All grades","Total, N = 9",2 (22.2) n (%)
same,"TEAE Conjunctivitis, Grade ≥ 3","Total, N = 9",0 n (%)
same,"TEAE Constipation, All grades","Total, N = 9",4 (44.4) n (%)
same,"TEAE Constipation, Grade ≥ 3","Total, N = 9",0 n (%)
same,"TEAE Cough, All grades","Total, N = 9",1 (11.1) n (%)
same,"TEAE Cough, Grade ≥ 3","Total, N = 9",0 n (%)
same,"TEAE Cytomegalovirus infection, All grades","Total, N = 9",1 (11.1) n (%)
same,"TEAE Cytomegalovirus infection, Grade ≥ 3","Total, N = 9",0 n (%)
same,"TEAE Cytomegalovirus viremia, All grades","Total, N = 9",1 (11.1) n (%)
